# Laboratory results published in PMC6348446 (Journal of Medicinal Chemistry, 2018).
# Where two headings read alike, the source gives them in different places.
# Assays:
# BRD9 = biological target: T1, BRD9 (Homo sapiens, UniProt Q9H8M2); experiment: Western blot of BRD9 levels in HeLa cells after compound treatment; type: cell-based; conditions: 1 μM compound; for BRD9 degradation: HeLa cells; for remaining activity at 1 µM: Table 2, % of total protein remaining relative to 0.1% DMSO vehicle, HeLa cell lysates
# T1 construct: Western blot analysis of BRD9 and BRD7 levels after treatment of HeLa cells; endogenous in cells; host or cells: HeLa
# T1 sequence (Q9H8M2 1-597): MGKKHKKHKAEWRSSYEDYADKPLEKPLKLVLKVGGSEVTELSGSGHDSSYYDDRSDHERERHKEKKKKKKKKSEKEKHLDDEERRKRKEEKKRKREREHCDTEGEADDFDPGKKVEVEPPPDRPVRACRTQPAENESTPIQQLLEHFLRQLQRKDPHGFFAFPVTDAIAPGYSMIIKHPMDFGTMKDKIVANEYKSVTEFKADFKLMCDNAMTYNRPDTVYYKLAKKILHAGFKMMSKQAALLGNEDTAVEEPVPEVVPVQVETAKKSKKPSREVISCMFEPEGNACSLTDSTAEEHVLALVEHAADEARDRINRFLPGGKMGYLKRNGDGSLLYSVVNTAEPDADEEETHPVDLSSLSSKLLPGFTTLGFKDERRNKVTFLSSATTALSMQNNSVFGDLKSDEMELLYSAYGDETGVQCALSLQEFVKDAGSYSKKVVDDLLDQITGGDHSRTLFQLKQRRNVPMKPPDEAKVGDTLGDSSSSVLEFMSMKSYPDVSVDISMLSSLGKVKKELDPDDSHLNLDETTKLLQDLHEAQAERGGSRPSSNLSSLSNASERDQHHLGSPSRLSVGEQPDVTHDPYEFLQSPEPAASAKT
# BRD7 = biological target: T2, BRD7 (Homo sapiens, UniProt Q9NPI1); experiment: Western blot of BRD7 levels in HeLa cells after compound treatment; type: cell-based; conditions: 1 μM compound; for BRD7 degradation: HeLa cells; for remaining activity at 1 µM: Table 2, % of total protein remaining relative to 0.1% DMSO vehicle, HeLa cell lysates
# T2 construct: Western blot analysis of BRD9 and BRD7 levels after treatment of HeLa cells; endogenous in cells; host or cells: HeLa
# T2 sequence (Q9NPI1 1-651): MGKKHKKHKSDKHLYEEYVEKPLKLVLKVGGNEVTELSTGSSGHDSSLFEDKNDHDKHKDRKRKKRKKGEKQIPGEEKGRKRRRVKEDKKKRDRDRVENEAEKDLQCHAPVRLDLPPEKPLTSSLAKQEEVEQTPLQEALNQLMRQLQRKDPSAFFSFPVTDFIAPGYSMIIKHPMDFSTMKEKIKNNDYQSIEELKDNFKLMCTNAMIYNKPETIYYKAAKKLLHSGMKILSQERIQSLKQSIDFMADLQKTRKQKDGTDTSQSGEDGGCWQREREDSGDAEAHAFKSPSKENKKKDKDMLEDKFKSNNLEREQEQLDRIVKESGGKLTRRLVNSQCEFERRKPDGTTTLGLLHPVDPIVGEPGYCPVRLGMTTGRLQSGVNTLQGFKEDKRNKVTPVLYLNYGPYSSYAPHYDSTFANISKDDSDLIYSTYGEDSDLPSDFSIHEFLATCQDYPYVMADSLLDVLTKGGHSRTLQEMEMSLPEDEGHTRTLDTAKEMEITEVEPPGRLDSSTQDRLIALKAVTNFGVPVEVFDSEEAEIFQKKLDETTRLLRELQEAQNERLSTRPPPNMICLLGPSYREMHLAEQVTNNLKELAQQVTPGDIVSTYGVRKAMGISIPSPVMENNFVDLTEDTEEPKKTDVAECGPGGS
# Procedure: HeLa and Hek293 cells were seeded at either 0.3 × 10^6 or 0.5 × 10^6 cells per well in 6-well plate in 2 mL of medium. At 80% confluency, cells were treated with compounds at the desired concentration, with final DMSO concentration of 0.1% v/v. Cells were incubated at 37 °C and 5% of CO2 for the desired time before harvesting. For protein extraction from adherent cells, cells were washed twice with DPBS (Gibco) and lysed with RIPA buffer (Sigma-Aldrich), supplemented with cOmplete Mini EDTA-free protease inhibitor cocktail (Roche). Insoluble material was removed by centrifugation at 14 000 rpm for 15 min at 4 °C. Supernatant was collected and protein concentration was quantified by Bradford assay (Thermo Scientific no. 23200, mean of two replicates). For RI-1 cells, (1–1.5) × 10^6 cells/mL were seeded in 6-well plate in 2 mL of medium. The day after, cells were treated with compounds at the desired concentration, with final DMSO concentration of 0.1% v/v. Before harvesting, cells were incubated at 37 °C and 5% CO2 for the desired time. Cells were washed twice with DPBS (Gibco) and lysed with RIPA buffer (Sigma-Aldrich), supplemented with cOmplete Mini EDTA-free protease inhibitor cocktail (Roche). Lysates were sonicated (10 s) and centrifuged at 14 000 rpm for 20 min at 4 °C. Supernatant was collected, and protein concentration was quantified by Bradford assay (mean of two replicates). For EOL-1 and A-204 cell line, 20 000 cells were seeded in 300 μL per well in a 24-well plate and incubated at 37 °C overnight. Compounds were added from DMSO stock solution using a digital dispenser D300 (Tecan), normalizing for added DMSO, and cells were incubated at 37 °C for 18 h. Medium was removed, and cells were washed with PBS and lysed in 80 μL of lysis buffer (1% Triton, 350 mM KCl, 10 mM Tris, pH 7,4, phosphatase-protease inhibitor cocktail (Thermo Scientific no. 1861281), 10 mM DTT, Benzonase 0.5 μL/ml (Novagen no. 70746 10KU, 25 U/μL)) for 30 min on ice before insoluble debris was pelleted by centrifugation.
# Proteins were resolved by SDS–PAGE on NuPage 4–12% Bis-Tris Midi Gel (Invitrogen) and transferred to Amersham Protran 0.45 NC nitrocellulose membrane (GE Healthcare) using wet transfer. The membrane was blocked with 5% w/v milk in Tris-buffered saline (TBS) with 0.1% w/v Tween-20. The following primary antibodies at the given concentration were used: anti β-actin (Cell Signaling Technology, 4970S, 13E5) 1:2000, anti-Brd9 (Bethyl A303-781A) 1:1000, anti-Brd7 (Bethyl A302-304A) 1:1000, VHL rabbit Ab (Cell Signaling Technology, no. 68547S) 1:1000, anti-CRBN (Novus Bio, NBP 1-9-1810) 1:1000, anti-actin hFAB rhodamine antibody, Bio-Rad, no. 12004164. Following incubation with horseradish peroxidase-conjugated secondary antibody (Cell Signaling Technology) or IRDye secondary antibody (Licor), bands were developed using Amersham ECL Prime Western blotting detection kit on Amersham Hyperfilm ECL film (Amersham) or ChemiDoc imaging system (Bio-Rad). ImageJ software was used for band quantification, and the last was reported as relative amount as ratio of each protein band relative to the lane’s loading control. Then the values obtained were normalized to 0.1% DMSO vehicle control. Alternatively, protein levels were determined on a WES capillary electrophoresis instrument (Proteinsimple) using a BRD9 antibody (Bethyl A303-781A) and a GAPDH antibody (Abcam no. ab9485) for normalization. DC50 and half-lives were determined by assuming a linear model between the two data points across 50% protein level mark.
Compound,BRD9 degradation (BRD9; 4 h),BRD7 degradation (BRD7; 4 h),"remaining activity at 1 µM (BRD9; 4 h, read-out: BRD9 4 h (%))","remaining activity at 1 µM (BRD9; 16 h, read-out: BRD9 16 h (%))","remaining activity at 1 µM (BRD7; 4 h, read-out: BRD7 4 h (%))","remaining activity at 1 µM (BRD7; 16 h, read-out: BRD7 16 h (%))",BRD9 degradation (BRD9; 16 h),BRD7 degradation (BRD7; 16 h)
"COc1cc(-c2cn(C)c(=O)c3cnccc23)cc(OC)c1CN1CCN(CCOCCOCC(=O)NCCNc2cccc3c2C(=O)N(C2CCC(=O)NC2=O)C3=O)CC1 (stereo not drawn) [Compound 7, 2-(2-(2-(4-(2,6-Dimethoxy-4-(2-methyl-1-oxo-1,2-dihydro-2,7-naphthyridin-4-yl)benzyl)piperazin-1-yl)ethoxy)ethoxy)-N-(2-((2-(2,6-dioxopiperidin-3-yl)-1,3-dioxoisoindolin-4-yl)amino)ethyl)acetamide]",strong degradation,no BRD7 degradation,,,,,,
COc1cc(-c2cn(C)c(=O)c3cnccc23)cc(OC)c1CN1CCN(C(=O)COCCOCCOCC(=O)N[C@H](C(=O)N2C[C@H](O)C[C@H]2C(=O)NCc2ccc(-c3scnc3C)cc2)C(C)(C)C)CC1 [Compound 25],,,74%,73%,95%,113%,,
"COc1cc(-c2cn(C)c(=O)c3cnccc23)cc(OC)c1CN1CCN(CCOCCOCCOCCOCC(=O)N[C@H](C(=O)N2C[C@H](O)C[C@H]2C(=O)NCc2ccc(-c3scnc3C)cc2)C(C)(C)C)CC1 [Compound 6, (2S,4R)-1-((S)-2-(tert-Butyl)-17-(4-(2,6-dimethoxy-4-(2-methyl-1-oxo-1,2-dihydro-2,7-naphthyridin-4-yl)benzyl)piperazin-1-yl)-4-oxo-6,9,12,15-tetraoxa-3-azaheptadecanoyl)-4-hydroxy-N-(4-(4-methylthiazol-5-yl)benzyl)pyrrolidine-2-carboxamide]",at most 20%,at most 20%,99%,,102%,119%,≤ 30%,≤ 30%
"COc1cc(-c2cn(C)c(=O)c3cnccc23)cc(OC)c1CN1CCN(CCOCCOCCOCCOCC(=O)NCCNc2cccc3c2C(=O)N(C2CCC(=O)NC2=O)C3=O)CC1 (stereo not drawn) [Compound 8, 14-(4-(2,6-Dimethoxy-4-(2-methyl-1-oxo-1,2-dihydro-2,7-naphthyridin-4-yl)benzyl)piperazin-1-yl)-N-(2-((2-(2,6-dioxopiperidin-3-yl)-1,3-dioxoisoindolin-4-yl)amino)ethyl)-3,6,9,12-tetraoxatetradecanamide]",strong degradation,no BRD7 degradation,,,,,,
